{"source": "patent US10765690B2", "about": "“TLR4 agonists and compositions thereof and their use in the treatment of cancer” (GlaxoSmithKline Intellectual Property Development Limited, priority 2015, dated 2020)", "key": {"[1]": {"test_system": "CT-26 colorectal tumor cells", "assay": "CT-26 syngeneic colon carcinoma model, escalating i.p. doses (Example 9)", "type": "in vivo, Balb/c mice", "source_text": "The CT26 mouse colon carcinoma (CT26.WT; ATCC #CRL-2638) cell line was obtained from ATCC. It is an N-nitroso-N-methylurethane-(NNMU) induced, undifferentiated colon carcinoma cell line known in the art. For example, it is described in: Wang M, et al. Active immunotherapy of cancer with a nonreplicating recombinant fowlpox virus encoding a model tumor-associated antigen. J. Immunol. 154: 4685-4692, 1995 (PubMed: 7722321), which is incorporated by reference in its entirety herein. For preparation of tumor cells, A frozen (−140° C.) vial of CT-26 (mouse colon carcinoma cells), from ATCC (cat # CRL-2638, lot #59227052) are thawed and cultured in basic RPMI (with 10% FBS) media over the following week.\nCT-26 cells (passage 12) are harvested from the flask in complete medium. Cells are centrifuged and resuspended in RPMI (without FBS), this step is repeated 3 times. Cell density and viability are checked via trypan blue exclusion. Cells are then diluted to desired density (5×10^5 cells per mL) and kept on ice.\nEscalating doses of CRX 527 are evaluated for their efficacy in reducing tumor growth. Animals are weighed and innoculated on the right hind quarter with 0.5×10^5 CT26 tumor cells per mouse on Day 0. A total of 130 mice are inoculated with tumor cells—assuming 30% failure rate (either too big or too small at time of start of study), the goal is to have n=10 for each group. After tumor cell innoculation, tumor growth and total body weight are measured 3 times a week for the duration of the study. Randomization occurs on day 10 or 11 when the average tumor volume is approximately 100 mm^3. Begining on the day of randomization, animals are dosed with CRX 527 or vehicle i.p. biweekly, for a total of 6 doses. Mice remain on study until tumors reach >2000 cu mm for two consecutive measurements, they are removed from study for other reasons (i.e. weight loss >20%, ulceration on tumor, etc.) or until the end of the study. After euthanization the tumors may be removed and subject to dissociation for flow analysis and/or FFPE for IHC analysis.\nThe above protocol was used to generate the results in FIG. 17 at the dosages indicated. In almost every case, Balb/c mice that were inoculated with 0.5×10^5 CT-26 colorectal tumor cells on the right hind quarter developed tumors that, when treated i.p. with vehicle (2% glycerol) only, and progressed as expected. […] FIG. 17."}, "[2]": {"test_system": "CT-26 colorectal tumor cells", "assay": "CT-26 syngeneic colon carcinoma model, escalating i.p. doses (Example 9)", "type": "in vivo, Balb/c mice", "conditions": "CRX-601, similar experiment; 4, 20 or 100 ug"}, "CT-26 cells": {"test_system": "CT-26 cells", "assay": "CT-26 two-flank model, abscopal effect (study 4)", "type": "in vivo, mice", "experimental": "The in vivo anti-tumor efficacy of the TLR4 agonist (CRX-601) was assessed in the murine CT-26 colon carcinoma syngeneic solid tumor model as a monotherapy and in combination with […] a therapeutic antibody (combination data not shown). Seven to eight week old female Balb/c mice (BALB/cAnNCrl, Charles River) were used in these studies. Murine CT-26 colon carcinoma cells (ATCC catalog number CRL-2638 lot #59227052) were cultured in RPMI growth medium supplemented with 10% fetal bovine serum (FBS) in a humidified 37° C. incubator with 5% CO2, CT-26 cells cultured in logarithmic growth were harvested from tissue culture flasks and centrifuged for 5 minutes at 450×g at 4° C. for ten minutes to pellet cells. The supernatant was discarded, and cells were washed in ice cold phosphate buffered saline (PBS) without calcium and magnesium and centrifuged again for 5 minutes at 450×g at 4° C. for ten minutes to pellet cells. […] Tumor volume was calculated using the formula (0.52)×(Length)×(Width^2). In study 3, tumor-free mice were re-challenged with CT-26 tumor cells as described above, on the opposite flank from the original inoculation site and tumor growth was monitored, as described above. […]\nAn abscopal effect is described as distant tumor regression after a local tumor treatment. […] Tumor size was monitored for both the right and left flank tumors. […]"}}}
{"smiles": "CCCCCCCCCCC[C@H](CC(=O)N[C@H]1[C@H](OC[C@H](NC(=O)C[C@@H](CCCCCCCCCCC)OCCCCCCCCCC)C(=O)O)O[C@H](CO)[C@@H](OP(=O)(O)O)[C@@H]1OC(=O)C[C@@H](CCCCCCCCCCC)OCCCCCCCCCC)OCCCCCCCCCC", "note": "[CRX-601]", "values": [{"measurement": "Mean % Inhibition", "setting": "[1]; 4 ug, study day 14 (9/16)", "value": "−59.63", "unit": "%"}, {"measurement": "Mean % Inhibition", "setting": "[1]; 4 ug, study day 17 (9/19)", "value": 4.57, "unit": "%"}, {"measurement": "Mean % Inhibition", "setting": "[1]; 4 ug, study day 21 (9/23)", "value": "−1.55", "unit": "%"}, {"measurement": "Mean % Inhibition", "setting": "[1]; 4 ug, study day 24 (9/26)", "value": 21.73, "unit": "%"}, {"measurement": "Mean % Inhibition", "setting": "[1]; 4 ug, study day 28 (9/30)", "value": 7.65, "unit": "%"}, {"measurement": "Mean % Inhibition", "setting": "[1]; 4 ug, study day 31 (10/3)", "value": "−34.14", "unit": "%"}, {"measurement": "Mean % Inhibition", "setting": "[1]; 20 ug, study day 14 (9/16)", "value": 42.34, "unit": "%"}, {"measurement": "Mean % Inhibition", "setting": "[1]; 20 ug, study day 17 (9/19)", "value": 69.46, "unit": "%"}, {"measurement": "Mean % Inhibition", "setting": "[1]; 20 ug, study day 21 (9/23)", "value": 50.75, "unit": "%"}, {"measurement": "Mean % Inhibition", "setting": "[1]; 20 ug, study day 24 (9/26)", "value": 66.96, "unit": "%"}, {"measurement": "Mean % Inhibition", "setting": "[1]; 20 ug, study day 28 (9/30)", "value": 50.75, "unit": "%"}, {"measurement": "Mean % Inhibition", "setting": "[1]; 20 ug, study day 31 (10/3)", "value": "−18.27", "unit": "%"}, {"measurement": "Mean % Inhibition", "setting": "[1]; 100 ug, study day 14 (9/16)", "value": 68.20, "unit": "%"}, {"measurement": "Mean % Inhibition", "setting": "[1]; 100 ug, study day 17 (9/19)", "value": 92.51, "unit": "%"}, {"measurement": "Mean % Inhibition", "setting": "[1]; 100 ug, study day 21 (9/23)", "value": 98.50, "unit": "%"}, {"measurement": "Mean % Inhibition", "setting": "[1]; 100 ug, study day 24 (9/26)", "value": 93.21, "unit": "%"}, {"measurement": "Mean % Inhibition", "setting": "[1]; 100 ug, study day 28 (9/30)", "value": 94.68, "unit": "%"}, {"measurement": "Mean % Inhibition", "setting": "[1]; 100 ug, study day 31 (10/3)", "value": 80.15, "unit": "%"}, {"measurement": "tumor growth", "setting": "[2]", "value": "inhibited tumor growth"}, {"measurement": "survival benefit compared to the control group", "setting": "CT-26 cells; study 4, liposomal CRX-601 IT 25 ug/mouse, vs blank liposome + rat IgG1, p=0.011", "value": "significant survival benefit"}, {"measurement": "abscopal effect on untreated distant tumor", "setting": "CT-26 cells; study 4 group 2, left flank tumor IT injection, liposomal 25 ug/mouse, right flank tumor untreated, mouse #4 and #6", "value": "distant right flank tumor regression"}]}
